Measurements published in patent US20100099561A1, “HETEROBICYCLIC ALKYLTHIO-BRIDGED ISOXAZOLINES” (E.I. DU PONT DE NEMOURS AND COMPANY, priority 2008, published 2010).

How the values were obtained:
Type in all cases: in vivo
[1] = tested on: barnyardgrass (Echinochloa crus-galli); assay: Test A preemergence, barnyardgrass; details: 0 to 100 scale (0 no effect, 100 complete control)
Procedure, shortened: (§1)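 Visual injury scored 0 (no effect) to 100 (complete control) against untreated plants roughly ten days after greenhouse treatment. Postemergence sprays hit one- to two-leaf plants 2–10 cm high; preemergence was a directed spray onto loam–sand soil, both using surfactant-containing solvent formulations.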

[2] = tested on: pigweed (Amaranthus retroflexus); assay: Test A preemergence, pigweed; details: 0 to 100 scale (0 no effect, 100 complete control)
Procedure, shortened: as §1

[3] = tested on: barnyardgrass (Echinochloa crus-galli); assay: Test B flooded paddy test, barnyardgrass; details: Flood
Procedure, shortened: (§2)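 2-leaf plants; pots flooded 3 cm above soil; compound added to paddy water; depth maintained. Greenhouse 13–15 d. Visual rating vs controls, 0 (no effect) to 100 (complete control); dash = no result.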

[4] = tested on: velvetleaf (Abutilon theophrasti); assay: Test A postemergence, velvetleaf; details: 0 to 100 scale (0 no effect, 100 complete control)
Procedure, shortened: as §1

[5] = tested on: ducksalad (Heteranthera limosa); assay: Test B flooded paddy test, ducksalad; details: Flood, scale 0 to 100
Procedure, shortened: as §2

[6] = tested on: morningglory (Ipomoea spp.); assay: Test A preemergence, morningglory; details: 0 to 100 scale (0 no effect, 100 complete control)
Procedure, shortened: as §1

[7] = tested on: umbrella sedge (Cyperus difformis); assay: Test B flooded paddy test, umbrella sedge; details: Flood, scale 0 to 100
Procedure, shortened: as §2

rice (Oryza sativa) = assay: Test B flooded paddy test, rice; details: Flood, scale 0 to 100
Procedure, shortened: as §2

[8] = tested on: giant foxtail (Setaria faberi); assay: Test A preemergence, giant foxtail; details: 0 to 100 scale (0 no effect, 100 complete control)
Procedure, shortened: as §1

[9] = tested on: giant foxtail (Setaria faberi); assay: Test A postemergence, giant foxtail; details: 0 to 100 scale (0 no effect, 100 complete control)
Procedure, shortened: as §1

[10] = tested on: wheat (Triticum aestivum); assay: Test A preemergence, wheat; details: 0 to 100 scale (0 no effect, 100 complete control)
Procedure, shortened: as §1

[11] = tested on: velvetleaf (Abutilon theophrasti); assay: Test A preemergence, velvetleaf; details: 0 to 100 scale (0 no effect, 100 complete control)
Procedure, shortened: as §1

corn (Zea mays) [12] = assay: Test A preemergence, corn; details: 0 to 100 scale (0 no effect, 100 complete control)
Procedure, shortened: as §1

[13] = tested on: large crabgrass (Digitaria sanguinalis); assay: Test A preemergence, large crabgrass; details: 0 to 100 scale (0 no effect, 100 complete control)
Procedure, shortened: as §1

[14] = tested on: large crabgrass (Digitaria sanguinalis); assay: Test A postemergence, large crabgrass; details: 0 to 100 scale (0 no effect, 100 complete control)
Procedure, shortened: as §1

[15] = tested on: morningglory (Ipomoea spp.); assay: Test A postemergence, morningglory; details: 0 to 100 scale (0 no effect, 100 complete control)
Procedure, shortened: as §1

[16] = tested on: wheat (Triticum aestivum); assay: Test A postemergence, wheat; details: 0 to 100 scale (0 no effect, 100 complete control)
Procedure, shortened: as §1

[17] = tested on: barnyardgrass (Echinochloa crus-galli); assay: Test A postemergence, barnyardgrass; details: 0 to 100 scale (0 no effect, 100 complete control)
Procedure, shortened: as §1

corn (Zea mays) [18] = assay: Test A postemergence, corn; details: 0 to 100 scale (0 no effect, 100 complete control)
Procedure, shortened: as §1

[19] = tested on: pigweed (Amaranthus retroflexus); assay: Test A postemergence, pigweed; details: 0 to 100 scale (0 no effect, 100 complete control)
Procedure, shortened: as §1

CC1(C)CC([S+]([O-])Cc2c(C(F)(F)F)nc3n(c2=O)CCCO3)=NO1 (stereo not shown) [Compound 3]
Plant response rating, Barnyardgrass ([1]; 125 g ai/ha): 30 | Plant response rating, Barnyardgrass ([1]; 500 g ai/ha): 60 | Plant response rating, Pigweed ([2]; 125 g ai/ha): 40 | Plant response rating, Pigweed ([2]; 500 g ai/ha): 60 | Plant response rating, Barnyardgrass ([3]; 62 g ai/ha, scale 0 to 100): 0 | Plant response rating, Barnyardgrass ([3]; 250 g ai/ha, scale 0 to 100 (0 no effect, 100 complete control)): 0 | Plant response rating, Velvetleaf ([4]; 125 g ai/ha): 20 | Plant response rating, Velvetleaf ([4]; 500 g ai/ha): 50 | Plant response rating, Ducksalad ([5]; 62 g ai/ha): 0 | Plant response rating, Ducksalad ([5]; 250 g ai/ha): 40 | Plant response rating, Morningglory ([6]; 125 g ai/ha): 0 | Plant response rating, Morningglory ([6]; 500 g ai/ha): 0 | Plant response rating, Sedge, Umbrella ([7]; 62 g ai/ha): 0 | Plant response rating, Sedge, Umbrella ([7]; 250 g ai/ha): 0 | Plant response rating, Rice (rice (Oryza sativa); 62 g ai/ha): 0 | Plant response rating, Rice (rice (Oryza sativa); 250 g ai/ha): 0 | Plant response rating, Foxtail, Giant ([8]; 125 g ai/ha): 40 | Plant response rating, Foxtail, Giant ([8]; 500 g ai/ha): 70 | Plant response rating, Foxtail, Giant ([9]; 125 g ai/ha): 0 | Plant response rating, Foxtail, Giant ([9]; 500 g ai/ha): 50 | Plant response rating, Wheat ([10]; 125 g ai/ha): 0 | Plant response rating, Wheat ([10]; 500 g ai/ha): 0 | Plant response rating, Velvetleaf ([11]; 125 g ai/ha): 0 | Plant response rating, Velvetleaf ([11]; 500 g ai/ha): 0 | Plant response rating, Corn (corn (Zea mays) [12]; 125 g ai/ha): 0 | Plant response rating, Corn (corn (Zea mays) [12]; 500 g ai/ha): 0 | Plant response rating, Crabgrass, Large ([13]; 125 g ai/ha): 50 | Plant response rating, Crabgrass, Large ([13]; 500 g ai/ha): 70 | Plant response rating, Crabgrass, Large ([14]; 125 g ai/ha): 20 | Plant response rating, Crabgrass, Large ([14]; 500 g ai/ha): 50 | Plant response rating, Morningglory ([15]; 125 g ai/ha): 0 | Plant response rating, Morningglory ([15]; 500 g ai/ha): 0 | Plant response rating, Wheat ([16]; 125 g ai/ha): 0 | Plant response rating, Wheat ([16]; 500 g ai/ha): 0 | Plant response rating, Barnyardgrass ([17]; 125 g ai/ha): 0 | Plant response rating, Barnyardgrass ([17]; 500 g ai/ha): 50 | Plant response rating, Corn (corn (Zea mays) [18]; 125 g ai/ha): 0 | Plant response rating, Corn (corn (Zea mays) [18]; 500 g ai/ha): 0 | Plant response rating, Pigweed ([19]; 125 g ai/ha): 0 | Plant response rating, Pigweed ([19]; 500 g ai/ha): 30
